The values that follow are results of earlier work, collected in US20220056157A1, “PROCESS FOR FRACTIONATING AN ESTERIFIED CELLULOSE ETHER” (DOW GLOBAL TECHNOLOGIES LLC, priority 2015, published 2022).

≈ marks a conversion by molar mass, not a printed value.

In the case of `CCOC(=O)N1c2ccc(C(F)(F)F)cc2[C@@H](N(Cc2cc(C(F)(F)F)cc(C(F)(F)F)c2)C(=O)OC)C[C@H]1CC` [Torcetrapib], the water solubility was 0.13 ng/mL (≈ 0.216 nM).
